# Results taken from US4421688A, “Macbecin derivatives” (Takeda Chemical Industries, Ltd., priority 1981, dated 1983).
# Assay: Acute toxicity, mouse, intraperitoneal
# Type: in vivo
smiles,measurement,setting,value
COC1c2cc(O)cc(c2O)NC(=O)/C(C)=C/C=C\C(C)C(OC(N)=O)/C(C)=C/C(C)C(OC)C(O)CC1C (centres unmarked) [E-5-R],acute toxicity as compared with Macbecin I and II (in words),"intraperitoneal, versus Macbecin I and II",lower toxicity as compared with Macbecin I and II
same,acute toxicity (in words),ip,low toxicity
